Reference: ChEMBL document CHEMBL1154510, “A new antiangiogenic C24 oxylipin from the soft coral Sinularia numerosa” (Bioorg Med Chem, 2009)
Active and inactive are the calls of the source. The rule behind the calls is not given here.

What was measured:
Assay type in all cases: functional, cell-based
[1] = test system: EA.hy 926; assay: Inhibition of tube formation in human EAhy926 cells after 24 hrs by phase-contrast microscopy
[2] = test system: EA.hy 926; assay: Inhibition of tube formation in human EAhy926 cells at 10 uM pre-incubated for 12 hrs measured after 24 hrs by phase-contrast microscopy
[3] = test system: EA.hy 926; assay: Inhibition of tube formation in human EAhy926 cells at 50 uM after 24 hrs by phase-contrast microscopy
[4] = test system: EA.hy 926; assay: Inhibition of tube formation in human EAhy926 cells at 25 uM after 24 hrs by phase-contrast microscopy
[5] = test system: EA.hy 926; assay: Inhibition of tube formation in human EAhy926 cells at 20 uM after 24 hrs by phase-contrast microscopy
[6] = test system: EA.hy 926; assay: Inhibition of tube formation in human EAhy926 cells at 40 uM after 24 hrs by phase-contrast microscopy

## CCCCC/C=C\C=C\C(O)C/C=C\C/C=C\C/C=C\CCCCC(=O)O (stereo not given)
[1]
  Activity: Dose-dependent effect
[2]
  Activity: Active

## CCCCC/C=C\C[C@@H](O)/C=C/C=C/C=C\[C@@H](O)CCCC(=O)O
[2]
  Activity: Active

## CC/C=C\C/C=C\C/C=C\C/C=C\C/C=C\C/C=C\CCC(=O)O
[3]
  Activity: inactive

## Cc1cccc(Nc2cc(Cl)nc(SCC(=O)O)n2)c1C
[2]
  Activity: Active

## CC/C=C\C/C=C\C/C=C\C/C=C\C/C=C\CCCC(=O)O
[3]
  Activity: inactive

## CC1(COc2ccc(CC3SC(=O)NC3=O)cc2)CCCCC1 (stereo not given)
[2]
  Activity: Active

## CCCCC/C=C/C=C/C(O)CCCCCCCC(=O)O (stereo not given)
[4]
  Activity: Active

## CCCCC/C=C\C=C\C(O)C/C=C\C/C=C\CCCC(=O)O (stereo not given)
[5]
  Activity: Active
[6]
  Activity: Active
